In ChEMBL document CHEMBL5465560, “Selectivity Literature for EUbOPEN Chemogenomic Library” (2024):
Each block holds one compound with its values, some of them ahead of it.

Assays:
[1] = molecular target: Casein kinase I isoform epsilon (Homo sapiens, UniProt P49674); test: Selectivity interaction (KinomeScan (DiscoverX)) EUB0001049a CSNK1E; settings: at 1 µM
[2] = molecular target: Ribosomal protein S6 kinase alpha-6 (Homo sapiens, UniProt Q9UK32); test: Selectivity interaction (KinomeScan (DiscoverX)) EUB0001049a RPS6KA6; settings: at 1 µM
Sequence of Ribosomal protein S6 kinase alpha-6 (Q9UK32 whole entry): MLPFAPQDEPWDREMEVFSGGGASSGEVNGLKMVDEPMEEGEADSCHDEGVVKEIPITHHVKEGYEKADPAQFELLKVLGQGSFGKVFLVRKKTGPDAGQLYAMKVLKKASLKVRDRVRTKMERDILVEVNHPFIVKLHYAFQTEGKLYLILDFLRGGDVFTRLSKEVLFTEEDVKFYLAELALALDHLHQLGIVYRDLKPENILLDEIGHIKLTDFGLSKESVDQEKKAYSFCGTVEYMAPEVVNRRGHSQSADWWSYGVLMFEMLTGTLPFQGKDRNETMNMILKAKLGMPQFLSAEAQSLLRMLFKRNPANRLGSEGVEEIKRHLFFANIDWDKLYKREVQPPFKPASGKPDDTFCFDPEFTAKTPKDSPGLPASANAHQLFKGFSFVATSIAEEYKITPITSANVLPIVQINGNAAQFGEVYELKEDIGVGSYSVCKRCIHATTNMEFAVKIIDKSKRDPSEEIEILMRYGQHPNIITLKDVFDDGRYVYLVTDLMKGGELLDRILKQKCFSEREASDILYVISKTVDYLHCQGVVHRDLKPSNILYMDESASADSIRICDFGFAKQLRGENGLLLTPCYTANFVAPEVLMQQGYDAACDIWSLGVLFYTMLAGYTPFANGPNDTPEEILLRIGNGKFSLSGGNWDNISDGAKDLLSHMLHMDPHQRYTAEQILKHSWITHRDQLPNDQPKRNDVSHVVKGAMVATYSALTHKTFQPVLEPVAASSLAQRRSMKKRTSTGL

[3] = molecular target: Mitogen-activated protein kinase kinase kinase kinase 4 (Homo sapiens, UniProt O95819); test: Selectivity interaction (Ambit KINOMEscan and KiNATiv profiling in Jurkat cells) EUB0000090b MAP4K4; assay type: cell-based; settings: at 1 µM
Sequence of Mitogen-activated protein kinase kinase kinase kinase 4 (O95819 2-1239 limits assumed): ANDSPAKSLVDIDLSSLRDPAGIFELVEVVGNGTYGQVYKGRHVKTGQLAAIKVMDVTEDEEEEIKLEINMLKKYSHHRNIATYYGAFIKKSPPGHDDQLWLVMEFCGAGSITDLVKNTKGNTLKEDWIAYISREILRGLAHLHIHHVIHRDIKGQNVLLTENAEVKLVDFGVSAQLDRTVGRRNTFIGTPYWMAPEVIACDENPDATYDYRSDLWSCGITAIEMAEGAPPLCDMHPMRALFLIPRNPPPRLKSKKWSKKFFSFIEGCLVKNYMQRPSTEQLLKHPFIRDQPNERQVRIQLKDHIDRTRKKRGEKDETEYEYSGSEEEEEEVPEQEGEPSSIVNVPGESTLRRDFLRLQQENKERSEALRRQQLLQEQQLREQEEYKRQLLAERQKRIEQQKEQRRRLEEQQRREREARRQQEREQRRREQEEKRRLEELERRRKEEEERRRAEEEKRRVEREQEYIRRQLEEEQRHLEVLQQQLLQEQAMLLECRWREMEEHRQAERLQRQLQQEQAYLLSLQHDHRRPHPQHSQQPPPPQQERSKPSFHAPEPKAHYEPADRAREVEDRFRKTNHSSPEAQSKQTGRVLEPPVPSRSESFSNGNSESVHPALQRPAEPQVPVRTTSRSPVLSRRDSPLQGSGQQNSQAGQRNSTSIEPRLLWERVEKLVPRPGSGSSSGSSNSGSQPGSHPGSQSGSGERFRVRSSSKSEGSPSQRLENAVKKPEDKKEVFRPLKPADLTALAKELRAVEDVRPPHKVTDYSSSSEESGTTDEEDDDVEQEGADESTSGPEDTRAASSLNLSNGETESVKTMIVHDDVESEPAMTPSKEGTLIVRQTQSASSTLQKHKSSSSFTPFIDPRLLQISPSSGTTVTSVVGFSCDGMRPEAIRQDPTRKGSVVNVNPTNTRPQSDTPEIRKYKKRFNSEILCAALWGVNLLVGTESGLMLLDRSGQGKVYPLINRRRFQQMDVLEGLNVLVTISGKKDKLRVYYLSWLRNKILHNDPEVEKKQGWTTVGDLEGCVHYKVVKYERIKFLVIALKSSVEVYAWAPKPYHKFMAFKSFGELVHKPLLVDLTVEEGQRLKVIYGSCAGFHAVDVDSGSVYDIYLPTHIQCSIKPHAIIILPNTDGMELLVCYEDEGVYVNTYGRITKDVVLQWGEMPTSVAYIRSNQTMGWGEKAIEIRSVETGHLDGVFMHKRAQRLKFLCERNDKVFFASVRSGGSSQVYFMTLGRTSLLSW

[4] = molecular target: T1, Protein kinase C iota type (Homo sapiens) (UniProt P41743); test: Selectivity interaction (ActivX KiNativ screen (kinase selectivity in THP-1 cell lysates)) EUB0000639a PRKCI; assay type: subcellular; settings: lysate, at 0.04 µM
T1 sequence (whole entry): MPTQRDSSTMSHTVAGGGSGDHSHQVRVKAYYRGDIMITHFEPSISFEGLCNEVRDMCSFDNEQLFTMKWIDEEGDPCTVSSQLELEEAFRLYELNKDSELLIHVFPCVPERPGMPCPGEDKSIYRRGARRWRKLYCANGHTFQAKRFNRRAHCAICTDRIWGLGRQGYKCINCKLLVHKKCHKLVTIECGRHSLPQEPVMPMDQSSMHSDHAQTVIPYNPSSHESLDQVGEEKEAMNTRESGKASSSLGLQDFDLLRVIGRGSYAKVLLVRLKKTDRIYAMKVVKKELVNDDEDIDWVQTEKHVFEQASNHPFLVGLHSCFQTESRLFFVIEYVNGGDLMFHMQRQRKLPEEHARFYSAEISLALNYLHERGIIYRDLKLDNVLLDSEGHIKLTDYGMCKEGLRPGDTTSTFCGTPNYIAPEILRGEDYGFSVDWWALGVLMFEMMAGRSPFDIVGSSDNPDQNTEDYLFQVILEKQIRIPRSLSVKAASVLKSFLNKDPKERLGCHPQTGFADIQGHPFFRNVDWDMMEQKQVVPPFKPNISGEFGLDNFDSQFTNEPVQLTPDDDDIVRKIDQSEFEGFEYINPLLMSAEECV

[5] = molecular target: T2, Calcium/calmodulin-dependent protein kinase type IV (Homo sapiens) (UniProt Q16566); test: Selectivity interaction (Kinase panel (Invitrogen)) EUB0000639a CAMK4; settings: at 200 nM
T2 sequence (whole entry): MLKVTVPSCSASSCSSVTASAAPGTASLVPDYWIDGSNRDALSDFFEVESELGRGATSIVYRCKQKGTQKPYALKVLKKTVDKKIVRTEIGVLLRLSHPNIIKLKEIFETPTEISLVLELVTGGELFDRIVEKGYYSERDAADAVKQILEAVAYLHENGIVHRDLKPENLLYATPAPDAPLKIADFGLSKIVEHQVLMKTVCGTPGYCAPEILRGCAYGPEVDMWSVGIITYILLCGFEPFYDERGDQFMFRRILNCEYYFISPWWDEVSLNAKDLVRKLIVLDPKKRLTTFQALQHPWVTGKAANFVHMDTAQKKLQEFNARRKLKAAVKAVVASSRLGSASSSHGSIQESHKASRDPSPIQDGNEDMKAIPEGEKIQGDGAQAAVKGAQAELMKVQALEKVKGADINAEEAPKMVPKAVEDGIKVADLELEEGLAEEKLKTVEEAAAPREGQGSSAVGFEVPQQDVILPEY

[6] = molecular target: T3, Mitogen-activated protein kinase 15 (Homo sapiens) (UniProt Q8TD08); test: Selectivity interaction (KinomeScan (DiscoverX)) EUB0000595a MAPK15; settings: at 10 µM
T3 sequence (whole entry): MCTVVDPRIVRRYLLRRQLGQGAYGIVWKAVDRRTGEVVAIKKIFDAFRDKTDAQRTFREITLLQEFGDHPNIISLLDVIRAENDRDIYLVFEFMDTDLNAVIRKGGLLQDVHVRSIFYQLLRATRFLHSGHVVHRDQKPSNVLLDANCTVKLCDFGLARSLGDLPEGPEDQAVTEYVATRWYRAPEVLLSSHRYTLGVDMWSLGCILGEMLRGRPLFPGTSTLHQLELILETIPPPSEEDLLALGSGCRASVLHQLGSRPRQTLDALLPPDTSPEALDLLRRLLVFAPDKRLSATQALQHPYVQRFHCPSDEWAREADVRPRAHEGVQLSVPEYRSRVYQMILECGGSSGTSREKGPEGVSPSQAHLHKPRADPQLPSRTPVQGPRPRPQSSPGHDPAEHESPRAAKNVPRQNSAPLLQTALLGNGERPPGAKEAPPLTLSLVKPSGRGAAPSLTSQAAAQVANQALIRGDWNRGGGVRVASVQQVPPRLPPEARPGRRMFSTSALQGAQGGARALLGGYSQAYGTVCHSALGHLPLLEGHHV

[7] = molecular target: T4, Testis-specific serine/threonine-protein kinase 1 (Homo sapiens) (UniProt Q9BXA7); test: Selectivity interaction (Upstate Kinase Profiler service (Millipore)) EUB0000056c TSSK1A; settings: at 1 µM
T4 sequence (whole entry): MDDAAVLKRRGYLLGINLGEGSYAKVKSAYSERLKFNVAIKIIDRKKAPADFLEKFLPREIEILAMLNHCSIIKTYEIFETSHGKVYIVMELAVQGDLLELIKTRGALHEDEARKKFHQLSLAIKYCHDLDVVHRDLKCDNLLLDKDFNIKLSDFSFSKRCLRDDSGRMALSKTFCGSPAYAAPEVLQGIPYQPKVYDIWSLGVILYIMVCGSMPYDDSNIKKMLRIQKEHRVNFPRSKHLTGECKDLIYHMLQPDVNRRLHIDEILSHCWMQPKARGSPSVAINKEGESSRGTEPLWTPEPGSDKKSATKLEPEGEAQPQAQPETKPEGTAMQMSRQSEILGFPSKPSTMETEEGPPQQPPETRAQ

[8] = molecular target: T1, Protein kinase C iota type (Homo sapiens); test: Selectivity interaction (Upstate Kinase Profiler service (Millipore)) EUB0000056c PRKCI; settings: at 1 µM
Aurora kinase B = Aurora kinase B (Homo sapiens, UniProt Q96GD4); test: Selectivity interaction (KinomeScan (DiscoverX)) EUB0000666a AURKB; settings: at 10 µM
Sequence of Aurora kinase B (Q96GD4 whole entry): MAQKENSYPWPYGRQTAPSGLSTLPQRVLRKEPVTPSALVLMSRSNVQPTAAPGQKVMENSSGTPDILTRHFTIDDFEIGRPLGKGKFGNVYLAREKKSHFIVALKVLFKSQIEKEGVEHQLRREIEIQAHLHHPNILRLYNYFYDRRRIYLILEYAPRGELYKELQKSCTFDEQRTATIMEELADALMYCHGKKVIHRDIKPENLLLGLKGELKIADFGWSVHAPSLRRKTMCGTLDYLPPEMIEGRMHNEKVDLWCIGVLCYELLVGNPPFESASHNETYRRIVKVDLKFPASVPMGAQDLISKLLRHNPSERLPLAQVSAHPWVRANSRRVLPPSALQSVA

[9] = molecular target: Cyclin-dependent kinase 2 (Homo sapiens, UniProt P24941); test: Selectivity interaction (Kinase panel (DSF assay)) EUB0001558a CDK2

Sequence of Casein kinase I isoform epsilon (P49674 whole entry, looked up, canonical isoform): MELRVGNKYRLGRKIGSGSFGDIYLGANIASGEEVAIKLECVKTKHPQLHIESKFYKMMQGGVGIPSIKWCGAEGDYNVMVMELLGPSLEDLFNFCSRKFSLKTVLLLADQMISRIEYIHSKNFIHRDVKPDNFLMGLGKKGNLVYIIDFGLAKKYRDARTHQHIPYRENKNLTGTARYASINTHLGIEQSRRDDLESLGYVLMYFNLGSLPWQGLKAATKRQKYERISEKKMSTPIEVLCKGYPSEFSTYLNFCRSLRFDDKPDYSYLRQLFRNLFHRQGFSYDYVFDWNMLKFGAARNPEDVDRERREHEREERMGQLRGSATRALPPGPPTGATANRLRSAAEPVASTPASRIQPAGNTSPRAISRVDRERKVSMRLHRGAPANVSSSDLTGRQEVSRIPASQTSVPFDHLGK

SMILES: COc1cc(Nc2nc(C)cc(-c3cnn4nc(OC)ccc34)n2)cc(C(F)(F)F)c1
% of control [1]: 80% | % of control [2]: 70%

SMILES: CN(C)C/C=C/C(=O)Nc1ccc(C(=O)N2CCCC(Nc3ncc(Cl)c(-c4c[nH]c5ccccc45)n3)C2)cc1 (stereo not given)
% of control [3]: 78%

% of inhibition [4]: -0.9% | % of inhibition [5]: -8.2%
SMILES: CC[C@@H]1[C@H](F)C(=O)N[C@@H]1COc1nccc2cc(C(N)=O)c(OC)cc12 [ZIMLOVISERTIB]

SMILES: COCC(=O)NC/C=C/c1ccc2ncnc(Nc3ccc(Oc4ccc(C)nc4)c(C)c3)c2c1 [CP-724714]
% of control [6]: 100%

% of inhibition [7]: 35% | % of inhibition [8]: -10%
SMILES: Cc1ccc(-c2ccc3c(ccc4sc5c(c43)NC[C@@H](C)NC5=O)n2)cn1

SMILES: O=C(NOC[C@H](O)CO)c1ccc(F)c(F)c1Nc1ccc(I)cc1F
% of control (Aurora kinase B): 99%

SMILES: CC(C)(O)[C@H](F)CN1Cc2cc(NC(=O)c3cnn4cccnc34)c(N3CCOCC3)cc2C1=O
dTM [9]: 0.1 K
